The target in assay [1] is BCL-2 (Homo sapiens (Human), UniProt P10415). The assay can be described thus: Protein-protein interaction assay BCL-2/Bad BH3 peptide (BCL-2 assay), TR-FRET. It counts as binding. The settings on record: BCL-2/Bad BH3 peptide TR-FRET; median. How it is done: Assay 3 Protein-Protein Interaction assay: BCL-2/Bad BH3 Peptide (BCL-2 Assay)
The dose-dependent inhibition by the compounds described in this invention of the interaction between BCL-2 and the BH3 domain of Bad (both human) was determined using a steady state binding competition assay with time-resolved fluorescence energy transfer (TR-FRET) readout. For that purpose BCL-2 (amino acids 1-211, C-terminal fused to a hexahistidine (6× His) tag (SEQ ID 5) and a synthetic Bad BH3-derived peptide of sequence Biotin-PEG2-PEG2-NLWAAQRYGRELRR-Nle-SDEFVDSFKK-amide (SEQ ID 4) served as protein receptor and tracer ligand respectively. The recombinant BCL-2 protein (expressed in E. coli) was purchased from BPS Bioscience (San Diego, Calif., USA). The Bad BH3-derived peptide can be obtained from e.g. Biosyntan (Berlin, Germany).
In the assay 11 different concentrations of each compound (0.1 nM, 0.33 nM, 1.1 nM, 3.8 nM, 13 nM, 44 nM, 0.15 μM, 0.51 μM, 1.7 μM, 5.9 μM and 20 μM) were typically measured as duplicates in the same microtiter plate. For that, 100-fold concentrated DMSO solutions were prepared by serial dilutions (1:3.4) of a 2 mM stock solution in a clear, 384-well microtiter plate (Greiner Bio-One, Frickenhausen, Germany). From there, 50 nl were transferred in a dark test plate (Greiner Bio-One, Frickenhausen, Germany). The assay was initiated by addition of 2 μl of a 2,5-fold concentrated His-BCL-2 solution (usually for a 1 nM end concentration in 5 μl reaction volume) in aqueous assay buffer [50 mM Tris/HCl pH 7, 100 mM sodium chloride (NaCl), 50 mM potassium fluoride (KF), 0.005% Tween-20, 2 mM DTT, 0.1% bovine gamma globulin (BGG)] to the compounds in the assay plate. This was followed by a 10-minute incubation step at 22° C. for pre-equilibration of the putative complex between His-BCL-2 and the compounds. After that, 3 μl of a 1.67-fold concentrated solution (in assay buffer) consisting of Bad BH3-derived peptide (1 nM end concentration) and TR-FRET detection reagents [1.67 nM anti-His-Eu cryptate and 1.67 nM streptavidin-XL665 (both from Cisbio Bioassays, Codolet, France)], were added.
The mixture was incubated in the dark for one hour at 22° C. and then overnight at 4° C. The formation of BCL-2/Bad complexes was determined by measuring the resonance energy transfer of the anti-His-Eu-cryptate antibody to the streptavidin-XL665 present in the reaction. For that purpose, the fluorescence emission at 620 nm and 665 nm after excitation at 330-350 nm was measured in a TR-FRET measuring instrument, for instance a Rubystar or a Pherastar (both from BMG Lab Technologies, Offenburg, Germany) or a Viewlux (Perkin-Elmer). The ratio of the emission at 665 nm and at 622 nm was used as indicator of the amount of BCL-2/Bad complexes present.
The resulting data (ratio) were normalized, taking 0% inhibition as the mean value of control measurements (usually 32 data points) where all reagents were included. In this case 50 nl DMSO were used instead of compounds. A 100% inhibition corresponded to the mean value of control measurements (usually 32 data points) where all reagents except BCL-2 were included. IC50 values were determined by regression analysis based on a 4 parameter equation (minimum, maximum, IC50, Hill; Y=Max+(Min−Max)/(1+(X/IC50)^Hill) using the Screener Software (Genedata).
A general note: In TR-FRET formats the signal depends on donor and acceptor labels being close together.

Assay [2] concerns SUDHL5. As to the kind of experiment: Antiproliferation assay SUDHL5 (Assay 7). Format: cell-based. The settings on record: SUDHL5 cells, CellTiter-Glo, median, read-out: IC50 Antiproli SUDHL5 [M] (median). In outline:
(§1)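 Luminescent ATP-based viability (CellTiter-Glo) measured after 72 h of compound treatment at 37 °C. A day 0 plate recorded at time zero served as the starting reference for proliferation.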
(In ATP-based viability assays light output follows the ATP content of the culture.)

The subject of assay [3] is MV-4-11. As to the kind of experiment: Antiproliferation assay MV-4-11 (Assay 7). It counts as cell-based. To be noted: MV-4-11 cells, CellTiter-Glo, single determinations, read-out: IC50 Antiproli MV-4-11. Put shortly: as §1
Assay [4] concerns SUDHL5. The assay can be described thus: Induction of caspase-3/7 activity, SUDHL5 (Assay 4). Format: cell-based. To be noted: SUDHL5 cells. Put shortly:
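DLBCL lines treated with compounds for 3 h at 37° C.; caspase-3/7 activity read by Caspase-Glo 3/7 luminescence. Medium-only background subtracted; EC50 fitted with bottom fixed at 1 and top set to reference compound's maximal induction.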

Setting [5] is: Homo sapiens, SU-DHL-5, 3 h, Caspase-Glo 3/7, median.

Our source for the IC50 and EC50 values is patent US11286263B2, “Macrocyclic fluorine substituted indole derivatives” (The Broad Institute, Inc., priority 2017, dated 2022).

pIC50: −log10 of the molar value. “And” between values parts separate entries of the source, which are not always exact repeats. Equal entries are not always repeated. Where two headings read alike, the source gives them in different places. Bounds are passed on as bounds.

Chain of BCL-2 (P10415 1-211): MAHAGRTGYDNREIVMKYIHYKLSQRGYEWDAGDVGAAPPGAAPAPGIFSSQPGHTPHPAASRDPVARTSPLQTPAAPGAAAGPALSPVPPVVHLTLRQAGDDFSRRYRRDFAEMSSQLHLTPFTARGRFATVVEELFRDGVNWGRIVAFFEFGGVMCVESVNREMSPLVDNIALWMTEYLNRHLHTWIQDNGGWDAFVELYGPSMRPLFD

A word on the IC50: it is the midpoint of a concentration-inhibition curve. A word on the pIC50: it is the IC50 on a negative log10 scale, so that one unit is a factor of ten. The EC50 is the concentration giving half of the maximal effect. Take `Cc1c2c(nn1C)COC/C=C\Cn1c(C(=O)O)c(CCCOc3cccc4ccccc34)c3ccc(F)c-2c31` (racemic) [Example 1, (rac)-(11Z)-4-fluoro-2,3-dimethyl-7-[3-(naphthalen-1-yloxy)propyl]-2,10,13,15-tetrahydro-pyrazolo[4′,3′:9,10][1,6]oxazacycloundecino[8,7,6-hi]indole-8-carboxylic acid]: the IC50 in assay [1] is over 20000 nM; in assay [2] (Homo sapiens, SU-DHL-5, 72 h), 9e-07 M. Besides, the pIC50 in assay [3] (Homo sapiens, MV4-11, 72 h) is 4.95; in assay [3] (72 h, listed as 01), 4.85. Also, the EC50 in assay [4] (setting [5]) worked out at 1400 nM.

For the compound `Cc1nn(C)c2c1-c1c(F)ccc3c(CCCOc4cccc5ccccc45)c(C(=O)O)n(c13)C/C=C\COC2` (racemic) [Example 9, (rac)-(Z)-13-fluoro-10,12-dimethyl-1-(3-(naphthalen-1-yloxy)propyl)-4,7,9,10-tetrahydro-pyrazolo[4′,3′:9,10][1]oxa[6]azacycloundecino[8,7,6-hi]indole-2-carboxylic acid], the half-inhibitory concentration (IC50) in assay [1] is over 20000 nM; in assay [2] (Homo sapiens, SU-DHL-5, 72 h), 3.7e-06 M. The pIC50 in assay [3] (Homo sapiens, MV4-11, 72 h) was 5.12; in assay [3] (72 h, listed as 09), 5.22. This compound showed an EC50 in assay [4] (setting [5]) of 2700 nM.

With `Cc1nn(C)c2c1-c1c(F)ccc3c(CCCOc4cccc5ccccc45)c(C(=O)O)n(c13)CCCCOC2` (racemic) [Example 10, (rac)-13-fluoro-10,12-dimethyl-1-(3-(naphthalen-1-yloxy)propyl)-4,5,6,7,9,10-hexahydro-pyrazolo[4′,3′:9,10][1]oxa[6]azacycloundecino[8,7,6-hi]indole-2-carboxylic acid], the IC50 in assay [1] is over 20000 nM; in assay [2] (Homo sapiens, SU-DHL-5, 72 h), 1.8e-06 M. Moreover, the pIC50 was 5.19 in assay [3] (Homo sapiens, MV4-11, 72 h) and 5.36 in assay [3] (72 h). In assay [4] (setting [5]), this compound gave a concentration for a half-maximal effect (EC50) of 1700 nM.

Turning to `CCc1nn(C)c2c1-c1c(F)ccc3c(CCCOc4cccc5ccccc45)c(C(=O)O)n(c13)C/C=C\COC2` (racemic) [Example 11, (rac)-(Z)-12-ethyl-13-fluoro-10-methyl-1-(3-(naphthalen-1-yloxy)propyl)-4,7,9,10-tetrahydro-pyrazolo[4′,3′:9,10][1]oxa[6]azacycloundecino[8,7,6-hi]indole-2-carboxylic acid], the IC50 in assay [1] was over 20000 nM; in assay [2] (Homo sapiens, SU-DHL-5, 72 h), 2.8e-06 M. Moreover, the pIC50 in assay [3] (Homo sapiens, MV4-11, 72 h) is 5.12; in assay [3] (72 h), 4.89. The compound also returned an EC50 in assay [4] (setting [5]) of 2100 nM.

Regarding `Cc1c2c(nn1C)COCCCCn1c(C(=O)O)c(CCCOc3cccc4c3CCCC4)c3ccc(F)c-2c31` (racemic) [Example 18, (rac)-13-fluoro-11,12-dimethyl-1-(3-((5,6,7,8-tetrahydronaphthalen-1-yl)oxy)propyl)-4,5,6,7,9,11-hexahydropyrazolo[4′,3′:9,10][1]oxa[6]azacycloundecino[8,7,6-hi]indole-2-carboxylic acid], the IC50 in assay [1] was over 20000 nM; in assay [2] (Homo sapiens, SU-DHL-5, 72 h) it was 1.2e-06 M. Further, the pIC50 was 5.45 in assay [3] (Homo sapiens, MV4-11, 72 h); 5.54 and 5.25 in assay [3] (72 h). Further, a half-maximal effect in assay [4] (setting [5]) (EC50) was put at 840 nM.

With `Cc1c2c(nn1C)COCCCCn1c(C(=O)O)c(CCCOc3cccc4c3CCC4)c3ccc(F)c-2c31` (racemic) [Example 19, (rac)-1-(3-((2,3-dihydro-1H-inden-4-yl)oxy)propyl)-13-fluoro-11,12-dimethyl-4,5,6,7,9,11-hexahydropyrazolo[4′,3′:9,10][1]oxa[6]azacycloundecino[8,7,6-hi]indole-2-carboxylic acid], the half-maximal inhibitory concentration (IC50) in assay [1] is over 20000 nM; in assay [2] (Homo sapiens, SU-DHL-5, 72 h), 1e-06 M. In addition, the pIC50 is 5.37 in assay [3] (Homo sapiens, MV4-11, 72 h); 5.54 and 5.31 in assay [3] (72 h). In assay [4] (setting [5]), the midpoint of the response, the EC50, lay at 960 nM.

For `Cc1cc(OCCCc2c(C(=O)O)n3c4c(c(F)ccc24)-c2c(nn(C)c2C)COCCCC3)cc(C)c1Cl` (racemic) [Example 20, (rac)-1-(3-(4-chloro-3,5-dimethylphenoxy)propyl)-13-fluoro-11,12-dimethyl-4,5,6,7,9,11-hexahydropyrazolo[4′,3′:9,10][1]oxa[6]azacycloundecino[8,7,6-hi]indole-2-carboxylic acid], the IC50 was over 20000 nM in assay [1] and 1.1e-06 M in assay [2] (Homo sapiens, SU-DHL-5, 72 h). Also, the pIC50 in assay [3] (Homo sapiens, MV4-11, 72 h) was 5.09; in assay [3] (72 h), 5.26. In addition, in assay [4] (setting [5]), the EC50 turned out to be 1400 nM.

As for `CCc1c2c(nn1C)CN(C)CCCCn1c(C(=O)O)c(CCCOc3cccc4c3CCCC4)c3ccc(F)c-2c31` (racemic) [Example 52, (rac)-3-ethyl-4-fluoro-2,14-dimethyl-7-[3-(5,6,7,8-tetrahydronaphthalen-1-yloxy)propyl]-10,11,12,13,14,15-hexahydro-2H-pyrazolo[3′,4′:8,9][1,6]diazacycloundecino[10,11,1-hi]indole-8-carboxylic acid], the IC50 in assay [1] is over 20000 nM; in assay [2] (Homo sapiens, SU-DHL-5, 72 h), 2.3e-07 M. The compound also came in with an EC50 in assay [4] (setting [5]) of 280 nM.

With `CCc1c2c(nn1C)CN(C)CCCCn1c(C(=O)O)c(CCCOc3cccc4cc(F)ccc34)c3ccc(F)c-2c31` (racemic) [Example 53, (rac)-3-ethyl-4-fluoro-7-{3-[(6-fluoro-1-naphthyhoxy]propyl}-2,14-dimethyl-10,11,12,13,14,15-hexahydro-2H-pyrazolo[3′,4′:8,9][1,6]diazacycloundecino[10,11,1-hi]indole-8-carboxylic acid], the IC50 in assay [1] is over 20000 nM; in assay [2] (Homo sapiens, SU-DHL-5, 72 h), 3.7e-07 M. Further, the EC50 in assay [4] (setting [5]) turned out to be 380 nM.

With `CCc1c2c(nn1C)CN(C)CCCCn1c(C(=O)O)c(CCCOc3cccc4ccccc34)c3ccc(F)c-2c31` (racemic) [Example 54, (rac)-3-ethyl-4-fluoro-2,14-dimethyl-7-[3-(1-naphthyloxy)propyl]-10,11,12,13,14,15-hexahydro-2H-pyrazolo[3′,4′:8,9][1,6]diazacycloundecino[10,11,1-hi]indole-8-carboxylic acid], the IC50 in assay [1] is over 20000 nM; in assay [2] (Homo sapiens, SU-DHL-5, 72 h), 4.4e-07 M. In assay [4] (setting [5]), this compound displayed an EC50 of 230 nM.

`Cc1c2c(nn1C)CNCCCCn1c(C(=O)O)c(CCCOc3cccc4ccccc34)c3ccc(F)c-2c31` (single isomer, unassigned; enantiomer 1) [Example 48, 4-fluoro-2,3-dimethyl-7-{3-[(naphthalen-1-yl)oxy]propyl}-10,11,12,13,14,15-hexahydro-2H-pyrazolo[3′,4′:8,9][1,6]diazacycloundecino[10,11,1-hi]indole-8-carboxylic acid (enantiomer 1)]: the 50% inhibitory concentration (IC50) in assay [1] is over 20000 nM; in assay [2] (72 h), 1.4e-06 M. Further, in assay [4] (3 h, Caspase-Glo 3/7, median), the EC50 is 1200 nM.
